Experimental findings from patent US10251395B2, “Substituted furano-/thienocycloalkylamino-2-pyrimidine derivatives and use thereof for controlling undesired plant growth” (Bayer CropScience Aktiengesellschaft, priority 2015, dated 2019) are described below.

Format in all cases: in vivo
For experiment [1], the system named is Amaranthus retroflexus. Briefly: Pre-emergence herbicidal effect. The note with it: scored visually after 3 weeks. The method, boiled down:
(§1)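 Herbicidal activity (%) is a visual rating made 3 weeks after treatment by comparison with untreated controls, where 0% equals control plants and 100% means the plants died. Application went onto the soil covering sown seeds before emergence.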

A further experiment relates to Matricaria inodora. Put plainly: Pre-emergence herbicidal effect. As to conditions: scored visually after 3 weeks. The method, boiled down:
as §1

The subject of experiment [2] is Setaria viridis. Briefly: Pre-emergence herbicidal effect. The note with it: scored visually after 3 weeks. The method, boiled down:
as §1

Experiment [3] relates to Stellaria media. Briefly: Pre-emergence herbicidal effect. The note with it: scored visually after 3 weeks. The essentials:
as §1

The test system of experiment [4] is Viola tricolor. Put plainly: Pre-emergence herbicidal effect. As to conditions: Dosage 320 g/ha, scored visually after 3 weeks. The method, boiled down:
as §1

Experiment [5] concerns Alopecurus myosuroides. Briefly: Post-emergence herbicidal effect. The note with it: 320 g/ha, assessed visually after about 3 weeks vs untreated controls. The method, boiled down: (§2)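 Visual % damage vs untreated plants, ~3 wk after spraying (100% = dead, 0% = as control). Post-emergence foliar spray at one-leaf stage; WP/EC in water, 600–800 L/ha + 0.2% wetting agent; sandy loam, greenhouse.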

Experiment [6] has as its system Amaranthus retroflexus. Briefly: Post-emergence herbicidal effect. The note with it: 320 g/ha, assessed visually after about 3 weeks vs untreated controls. The method, boiled down:
as §2

A further experiment concerns Ipomoea purpurea. Put plainly: Post-emergence herbicidal effect. The note with it: 320 g/ha, assessed visually after about 3 weeks vs untreated controls. The essentials: as §2
Experiment [7] concerns Stellaria media. Put plainly: Post-emergence herbicidal effect. As to conditions: assessed visually after about 3 weeks vs untreated controls. The method, boiled down: as §2
Experiment [8] deals with Polygonum convolvulus. Briefly: Pre-emergence herbicidal effect. The note with it: scored visually after 3 weeks. The essentials: as §1
Experiment [9] deals with Veronica persica. Put plainly: Pre-emergence herbicidal effect. As to conditions: scored visually after 3 weeks. The method, boiled down:
as §1

The subject of experiment [10] is Abutilon theophrasti. Briefly: Post-emergence herbicidal effect. The note with it: 320 g/ha, assessed visually after about 3 weeks vs untreated controls. The method, boiled down:
as §2

Experiment [11] deals with Setaria viridis. Put plainly: Post-emergence herbicidal effect. The note with it: 320 g/ha, assessed visually after about 3 weeks vs untreated controls. The method, boiled down:
as §2

Experiment [12] deals with Veronica persica. Put plainly: Post-emergence herbicidal effect. The note with it: 320 g/ha, assessed visually after about 3 weeks vs untreated controls. The method, boiled down: as §2
Experiment [13] relates to Viola tricolor. Put plainly: Post-emergence herbicidal effect. The note with it: 320 g/ha, assessed visually after about 3 weeks vs untreated controls. The essentials:
as §2

Experiment [14] relates to Abutilon theophrasti. Put plainly: Pre-emergence herbicidal effect. The note with it: Dosage 320 g/ha, scored visually after 3 weeks. The essentials:
as §1

Experiment [15] relates to Alopecurus myosuroides. Briefly: Pre-emergence herbicidal effect. The note with it: scored visually after 3 weeks. The essentials: as §1
In experiment [16] the test system is Echinochloa crus-galli. Briefly: Pre-emergence herbicidal effect. The note with it: scored visually after 3 weeks. The method, boiled down: as §1
A further experiment has as its system Lolium multiflorum. Put plainly: Pre-emergence herbicidal effect. The note with it: Dosage 320 g/ha, scored visually after 3 weeks. The essentials: as §1
Experiment [17] concerns Echinochloa crus-galli. Briefly: Post-emergence herbicidal effect. As to conditions: 320 g/ha, assessed visually after about 3 weeks vs untreated controls. The method, boiled down:
as §2

In experiment [18] the test system is Polygonum convolvulus. Briefly: Post-emergence herbicidal effect. The note with it: 320 g/ha, assessed visually after about 3 weeks vs untreated controls. The method, boiled down:
as §2

On to `Cc1cc2c(s1)CCCC2Nc1nc(N)c(-c2cncc(Cl)c2)c(C(F)F)n1` (racemic) [compound 300], for which the “AMARE pre-emergence efficacy (herbicidal activity)” value (shortened to “AMARE pre-emergence efficacy”) in the experiment with Amaranthus retroflexus [1] (Dosage 320 g/ha) stood at 100%. Moreover, the “MATIN pre-emergence efficacy (herbicidal activity)” value (from here on “MATIN pre-emergence efficacy”) in the experiment on Matricaria inodora (Dosage 80 g/ha) was found to be 80%; in the experiment on Matricaria inodora (Dosage 320 g/ha) it was 90%. Further, the “SETVI pre-emergence efficacy (herbicidal activity)” value (“SETVI pre-emergence efficacy” for short) with Setaria viridis [2] (Dosage 320 g/ha) turned out to be 70%. In addition, the “STEME pre-emergence efficacy (herbicidal activity)” value (“STEME pre-emergence efficacy” for short) in the experiment on Stellaria media [3] (Dosage 80 g/ha) amounted to 80%; with Stellaria media [3] (Dosage 320 g/ha) it was 100%. For the same compound, the “VIOTR pre-emergence efficacy (herbicidal activity)” value in the experiment with Viola tricolor [4] is on record as 100%. For the same compound, the “post-emergence efficacy ALOMY” value in the experiment on Alopecurus myosuroides [5] is recorded as 70%. The “post-emergence efficacy AMARE” value in the experiment with Amaranthus retroflexus [6] turned out to be 90%. Moreover, in the experiment with Ipomoea purpurea, the “post-emergence efficacy PHBPU” value came to 60%. The “post-emergence efficacy STEME” value in the experiment with Stellaria media [7] (80 g/ha) came out at 60%; in the experiment on Stellaria media [7] (320 g/ha) it was 90%.
In the case of `Cc1cc2c(s1)CCCC2Nc1nc(N)c(C#N)c(C(C)F)n1` (racemic) [compound 320], the “AMARE pre-emergence efficacy” value with Amaranthus retroflexus [1] (Dosage 320 g/ha) is listed as 100%. Also, the “MATIN pre-emergence efficacy” value in the experiment with Matricaria inodora (Dosage 320 g/ha) came to 100%. Also, in the experiment on Polygonum convolvulus [8] (Dosage 320 g/ha), the “POLCO pre-emergence efficacy (herbicidal activity)” value turned out to be 100%. In the experiment with Setaria viridis [2] (Dosage 320 g/ha), the “SETVI pre-emergence efficacy” value came out at 100%. In addition, the “STEME pre-emergence efficacy” value in the experiment with Stellaria media [3] (Dosage 320 g/ha) is 100%. Moreover, the “VERPE pre-emergence efficacy (herbicidal activity)” value with Veronica persica [9] (Dosage 320 g/ha) was determined as 100%. In addition, the “VIOTR pre-emergence efficacy (herbicidal activity)” value with Viola tricolor [4] is recorded as 100%. For the same compound, in the experiment with Abutilon theophrasti [10], the “post-emergence efficacy ABUTH” value was 80%. Besides, the “post-emergence efficacy ALOMY” value in the experiment with Alopecurus myosuroides [5] is recorded as 80%. Moreover, the “post-emergence efficacy AMARE” value in the experiment with Amaranthus retroflexus [6] was found to be 60%. The “post-emergence efficacy SETVI” value with Setaria viridis [11] is listed as 60%. The “post-emergence efficacy STEME” value in the experiment on Stellaria media [7] (320 g/ha) is given as 60%. In the experiment on Veronica persica [12], the “post-emergence efficacy VERPE” value turned out to be 100%. Besides, the “post-emergence efficacy VIOTR” value in the experiment with Viola tricolor [13] was found to be 100%.
`Cc1cc2c(s1)CCC[C@H]2Nc1ncc2c(n1)CCCS2(=O)=O` [compound 44]: the “ABUTH pre-emergence efficacy (herbicidal activity)” value with Abutilon theophrasti [14] came to 100%. Further, the figures for the “ALOMY pre-emergence efficacy (herbicidal activity)” value with Alopecurus myosuroides [15] (Dosage 80 g/ha) and in the experiment on Alopecurus myosuroides [15] (Dosage 320 g/ha) were 80% and 100%, respectively. Moreover, the “AMARE pre-emergence efficacy” value in the experiment with Amaranthus retroflexus [1] (Dosage 80 g/ha) and in the experiment with Amaranthus retroflexus [1] (Dosage 320 g/ha) was 100% throughout. Moreover, the “ECHCG pre-emergence efficacy (herbicidal activity)” value in the experiment with Echinochloa crus-galli [16] (Dosage 80 g/ha) and with Echinochloa crus-galli [16] (Dosage 320 g/ha) was 100% throughout. In addition, in the experiment on Lolium multiflorum, the “LOLMU pre-emergence efficacy (herbicidal activity)” value turned out to be 100%. Moreover, the “MATIN pre-emergence efficacy” value with Matricaria inodora (Dosage 80 g/ha) and with Matricaria inodora (Dosage 320 g/ha) was 100% throughout. Besides, the “POLCO pre-emergence efficacy (herbicidal activity)” value in the experiment with Polygonum convolvulus [8] (Dosage 80 g/ha) and in the experiment with Polygonum convolvulus [8] (Dosage 320 g/ha) was 100% throughout. Also, the “SETVI pre-emergence efficacy” value with Setaria viridis [2] (Dosage 80 g/ha) and in the experiment on Setaria viridis [2] (Dosage 320 g/ha) was 100% throughout. Further, the “STEME pre-emergence efficacy” value in the experiment on Stellaria media [3] (Dosage 80 g/ha) and with Stellaria media [3] (Dosage 320 g/ha) was 100% throughout. Also, the “VERPE pre-emergence efficacy (herbicidal activity)” value in the experiment with Veronica persica [9] (Dosage 80 g/ha) and in the experiment with Veronica persica [9] (Dosage 320 g/ha) was 100% each time. For the same compound, the “post-emergence efficacy ABUTH” value with Abutilon theophrasti [10] was 90%. In addition, the “post-emergence efficacy ALOMY” value in the experiment on Alopecurus myosuroides [5] was 90%. Also, the “post-emergence efficacy AMARE” value in the experiment on Amaranthus retroflexus [6] came out at 100%. The “post-emergence efficacy ECHCG” value with Echinochloa crus-galli [17] was found to be 100%. For the same compound, the “post-emergence efficacy PHBPU” value in the experiment with Ipomoea purpurea turned out to be 100%. Besides, the “post-emergence efficacy POLCO” value in the experiment on Polygonum convolvulus [18] came out at 80%. In addition, the “post-emergence efficacy SETVI” value in the experiment with Setaria viridis [11] stood at 100%. Besides, the “post-emergence efficacy STEME” value with Stellaria media [7] (320 g/ha) was 100%. Besides, in the experiment with Veronica persica [12], the “post-emergence efficacy VERPE” value was 100%. Also, the “post-emergence efficacy VIOTR” value with Viola tricolor [13] is on record as 80%.
